Like-named read-outs stand apart in the source and are kept apart here.
How the values were obtained:
[1] = system: ACCase of cell line 2167-9/2160-154 H-2; experiment: Herbicide inhibition of ACCase, line H-2; format: biochemical, maize; conditions: cell line H-2
Procedure: Maize chloroplasts, isolated as described above, were suspended in buffer C (0.1 M Tricine-KOH, pH 8.0; 0.3 M glycerol, and 1 mM DTT) and homogenized in a glass tissue homogenizer. The disrupted chloroplast fraction was centrifuged at 16,000 g for 15 minutes. The supernatant was desalted on a Sephadex G-25 column (1.5×5 cm equilibrated with 0.1 M Tricine-KOH, pH 8.0; and 0.3 M glycerol) and assayed directly. ACCase activity (B. J. Nikolau et al., Arch. Biochem. Biophys., 211, 605-612 (1981)) was assayed at 30° C. in a 0.2 ml volume which contained 1 mM ATP, 3 mM acetyl coenzyme A, 2.5 mM MgCl2, 50 mM KCl, 0.5 mM DTT, and 15 mM [^14C]NaHCO3 (0.17 mCi/mmol). Reactions were initiated by addition of acetyl coenzyme A and stopped by addition of 25 μl of 12 N HCl. Product formation was determined by the radioactivity found in an acid stable fraction by liquid scintillation spectrometry. Enzyme activity was linear for 15 minutes.
Acetyl Coenzyme A Carboxylase (ACCase) was extracted from cell lines S-1, H-1 and H-2 and assayed as described in detail for maize cell line S-2, above.

[2] = system: control cell line 2167-9/2160-154; experiment: Callus growth on herbicide medium, control line; format: cell-based, maize; conditions: for IC50: read-out: Herbicide concentration inhibiting growth 50%
Procedure: A selection protocol to identify and isolate herbicide-tolerant maize cells was developed to minimize the adverse effects of high herbicide concentrations on somatic embryo development and plant regeneration capacity. The procedure involved exposing tissue to gradually increasing concentrations of herbicide beginning with a sethoxydim concentration representing 1/20th of lethal dose and doubling the herbicide concentration at approximately two-week intervals until the lethal dose (10 μM sethoxydim) was reached. In this way, the herbicide was allowed to take effect slowly with continuous selection pressure, thus permitting herbicide-tolerant cells to accumulate over time while not affecting the potential for plant regeneration.
Approximately 100 grams of vigorously growing, regenerable, friable, embryogenic maize callus tissue established from an F1 immature embryo resulting from the cross A188×B73 were transferred to agar-solidified maintenance medium (Armstrong and Green, Planta, 164, 207 (1985)) in petri plates containing 0.5 μM sethoxydim (BASF) (Parsippany, N.J.). This callus line was designated 2167-9/2160-154. Forty plates were prepared and five clumps of callus tissue weighing about 0.5 grams each were placed on each plate. The 0.5 μM sethoxydim concentration was chosen from growth inhibition studies to provide less than 10-20% growth inhibition during the first two weeks of herbicide exposure. After 14 days, 0.25-0.5 gram pieces of tissue showing vigorous growth rate and retention of embryogenic morphology (i.e., presence of somatic embryos) were subcultured on fresh medium containing 1.0 μM sethoxydim. Eighty plates containing five pieces of tissue per plate were prepared. For each subsequent transfer, all callus tissue showing growth and somatic embryo forming ability was placed on fresh media containing a two-fold increased sethoxydim concentration. Therefore, callus was transferred at two-week intervals to petri plates containing 0.5, 1.0, 2.0, 5.0 and 10.0 μM sethoxydim. During the course of the selection process, the total number of lines decreased as the herbicide-mediated growth inhibition became more intense. […] These lines were designated 2167-9/2160-154 S-1 and 2167-9/2160-154 S-2.
Tolerant cell line 2167-9/2160-154 S-2 (“S-2”) was characterized to evaluate: (1) the magnitude of sethoxydim tolerance; (2) cross-tolerance of haloxyfop; and (3) the biochemical basis for the tolerance. Callus tissue from S-2 that had been maintained on 10 μM sethoxydim was transferred to media containing up to 100 μM sethoxydim. One-half gram of S-2 tissue was plated on a 7 cm filter paper as a lawn overlaying 50 ml agar-solidified culture medium containing 0, 0.5, 1.0, 2.0, 5.0, 10.0, 50.0 and 100 μM sethoxydim, and cultured for two weeks. […]

What does the source list for `CC(Oc1ccc(Oc2ncc(C(F)(F)F)cc2Cl)cc1)C(=O)O` (centres unmarked) [Haloxyfop, 2-[4-[[3-chloro-5-(trifluoromethyl)-2-pyridinyl]oxy]phenoxy]-propanoic acid]?
Fold increase in herbicide concentration that inhibits ACCase activity by 50% vs unselected parent cell line [1]: 0 fold; Fold increase in herbicide concentration that inhibits ACCase activity by 50% vs unselected parent cell line ([1]; listed as haloxyfop): no difference; IC50 ([2]; Zea mays, 336 h, control callus, growth after two weeks): 20 nM

How did the “Fold increase in herbicide concentration that inhibits ACCase activity by 50% vs unselected parent cell line” value [1] turn out when `CCCC(=NOCC)C1=C(O)CC(CC(C)SCC)CC1=O` (centres unmarked) [Sethoxydim, 2-[1-(ethoxyimino)-butyl]-5-[2-(ethylthio)propyl]-3-hydroxy-2-cyclohexen-1-one] was run?
The value was 0 fold.

And the “Fold increase in herbicide concentration that inhibits ACCase activity by 50% vs unselected parent cell line” value ([1]; listed as sethoxydim)?
The value was “no difference”.

What about the inhibition at 0.5 µM ([2]; Zea mays, 336 h, read-out: Growth inhibition) of the same compound?
The inhibition at 0.5 µM was 10 to 20%.

What about the IC50 ([2]; Zea mays, 336 h) of the same compound?
Its IC50 is 1000 nM.

What about the “Lethal dose for callus tissue” value ([2]; tissue culture selection protocol) of the same compound?
Its value is 10 µM.
